Data from US6908935B2, “Calcium receptor modulating agents” (Amgen Inc., priority 2002, dated 2005).

The molecules below were run against T1, human parathyroid cell Ca^2+ receptor (hPCaR) (Homo sapiens, UniProt P41180) (assay: [Ca2+]i measurement with fluo-3 in HEK 293 4.0-7 cells stably transfected with hPCaR). Conditions: fluo-3 fluorescence (485/530 nm), effect on [Ca^2+]i.
T1 construct: expressed in transfected cells
T1 sequence (P41180 20-1078): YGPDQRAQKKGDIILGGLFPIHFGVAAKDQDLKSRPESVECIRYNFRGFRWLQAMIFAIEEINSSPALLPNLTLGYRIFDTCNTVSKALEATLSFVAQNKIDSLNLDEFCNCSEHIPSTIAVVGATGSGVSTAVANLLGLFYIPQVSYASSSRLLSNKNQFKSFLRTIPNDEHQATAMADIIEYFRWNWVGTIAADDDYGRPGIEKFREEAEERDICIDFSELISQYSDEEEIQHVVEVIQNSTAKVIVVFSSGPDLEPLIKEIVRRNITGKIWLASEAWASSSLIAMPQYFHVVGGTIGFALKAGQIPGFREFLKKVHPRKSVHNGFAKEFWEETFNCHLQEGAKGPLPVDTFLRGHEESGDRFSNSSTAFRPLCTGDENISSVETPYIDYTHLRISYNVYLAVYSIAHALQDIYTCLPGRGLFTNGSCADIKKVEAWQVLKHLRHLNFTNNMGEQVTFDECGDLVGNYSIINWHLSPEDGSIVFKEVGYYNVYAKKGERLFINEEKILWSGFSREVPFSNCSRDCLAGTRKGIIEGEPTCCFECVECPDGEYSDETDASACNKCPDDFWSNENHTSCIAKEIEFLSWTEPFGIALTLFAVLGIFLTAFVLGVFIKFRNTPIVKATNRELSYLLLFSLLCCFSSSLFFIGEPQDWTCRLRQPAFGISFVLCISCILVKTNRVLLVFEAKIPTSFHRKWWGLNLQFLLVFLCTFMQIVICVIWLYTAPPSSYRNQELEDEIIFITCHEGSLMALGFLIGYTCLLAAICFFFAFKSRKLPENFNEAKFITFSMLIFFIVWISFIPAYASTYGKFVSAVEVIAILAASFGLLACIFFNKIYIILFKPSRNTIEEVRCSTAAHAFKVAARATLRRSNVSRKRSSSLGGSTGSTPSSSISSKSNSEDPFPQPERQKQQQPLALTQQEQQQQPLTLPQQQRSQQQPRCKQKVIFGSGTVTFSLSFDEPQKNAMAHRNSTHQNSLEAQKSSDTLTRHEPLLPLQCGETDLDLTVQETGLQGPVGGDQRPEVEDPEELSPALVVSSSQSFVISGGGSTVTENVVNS
Type: cell-based
Method: The activities of the compounds of the present invention on calcium receptors were measured. In one embodiment, the measurement was performed in accordance with the method described in Example 4 of Nemeth et al., PCT/US95/13704 (International Publication No. WO96/12697) herein incorporated by reference.
A 4.0-kb NotI-HindIII fragment of the human parathyroid cell Ca^2+ receptor (hPCaR) cDNA was subcloned into the mammalian expression vector pCEP4 (Invitrogen) containing the hygromycin-resistant gene as a selectable marker. This plasmid was transfected into HEK 293 cells by calcium phosphate precipitation. Transfected cells were grown in Dulbecco's modified Eagle's medium containing 10% fetal bovine serum and hygromycin (200 μg/mL). Hygromycin-resistant colonies were subcloned and assayed for hPCaR mRNA by solution hybridization using a ^32P-labeled RNA probe complementary to the (4.0 kb) hPCaR sequence (Garrett, et al., J. Biol. Chem. 270, 12919-12925 (1995)). Clone 7 was used to assess the effects of compounds on [Ca^2+]i. This stably transfected cell line is termed HEK 293 4.0-7. For measurements of [Ca^2+]i, the cells were recovered from tissue culture flasks by brief treatment with 0.02% EDTA and then washed and resuspended in PCB containing 1 mM CaCl2 and 0.1% Bovine Serum Albumin (“BSA”). The cells were loaded with fluo-3 by incubation for 30 min at 37° C., with parathyroid cell buffer (126 mM NaCl, 4 mM KCl, 1 mM MgSO4, 0.7 mM K2HPO/KH2PO4, 20 mM HEPES.NaOH (pH 7.45)) containing 0.5% BSA in lmM CaCl2 and 2 μM fluo-3 acetoxymethyl ester. The cells were subsequently washed, each test compound was added to the cells and the fluorescence was recorded by using excitation and emission wavelengths of 485 and 530 nm, respectively.

EC50 [µM]	SMILES
≤ 10	COc1cccc([C@@H](C)NCc2cccc(-c3cccc(NC(C)=O)c3)c2)c1 [N-(3′-((((1R)-1-(3-(methyloxy)phenyl)ethyl)amino)methyl)-1,1′-biphenyl-3-yl)acetamide]
≤ 10	C[C@@H](NCc1cccc(-c2cnccn2)c1)c1ccccc1 [(1R)-1-phenyl-N-((3-(2-pyrazinyl)phenyl)methyl)ethanamine]
≤ 10	COc1cccc([C@@H](C)NCc2ccc(OC)c(-c3ccsc3)c2)c1 [(1R)-1-(3-(methyloxy)phenyl)-N-((4-(methyloxy)-3-(3-thienyl)phenyl)methyl)ethanamine]
≤ 10	COc1ccc(CNC(C)c2cccc(F)c2)cc1-c1ccc(C(F)(F)F)cc1 (stereo not shown) [1-(3-fluorophenyl)-N-((6-(methyloxy)-4′-(trifluoromethyl)-1,1′-biphenyl-3-yl)methyl)ethanamine]
≤ 10	COc1ccc(CN[C@@H](C)c2ccccc2)cc1-c1ccc(C(F)(F)F)cc1 [(1S)-N-((6-(methyloxy)-4′-(trifluoromethyl)-1,1′-biphenyl-3-yl)methyl)-1-phenylethanamine]
≤ 10	COc1cccc([C@@H](C)NCc2ccc(OC)c(-c3nccs3)c2)c1 [(1R)-1-(3-(methyloxy)phenyl)-N-((4-(methyloxy)-3-(1,3-thiazol-2-yl)phenyl)methyl)ethanamine]
≤ 10	COc1ccc(CN[C@H](C)c2ccccc2)cc1-c1ccc2nccnc2c1 [(1R)-N-((4-(methyloxy)-3-(6-quinoxalinyl)phenyl)methyl)-1-phenylethanamine]
≤ 10	COc1cccc([C@@H](C)NCc2ccc(OC)c(-c3cccc(C(F)(F)F)c3)c2)c1 [(1R)-1-(3-(methyloxy)phenyl)-N-((6-(methyloxy)-3′-(trifluoromethyl)-1,1′-biphenyl-3-yl)methyl)ethanamine]
≤ 10	COc1cccc(-c2cccc(CN[C@H](C)c3cccc(OC)c3)c2)c1 [(1R)-N-((3′-(methyloxy)-1,1′-biphenyl-3-yl)methyl)-1-(3-(methyloxy)phenyl)ethanamine]
≤ 10	COc1cccc([C@@H](C)NCc2ccc(OC)c(-c3ccc4nccnc4c3)c2)c1 [(1R)-1-(3-(methyloxy)phenyl)-N-((4-(methyloxy)-3-(6-quinoxalinyl)phenyl)methyl)ethanamine]
≤ 10	COc1ccc(CN[C@H](C)c2ccccc2)cc1-c1ccc(N(C)C)nc1 [N,N-dimethyl-5-(2-(methyloxy)-5-((((1R)-1-phenylethyl)amino)methyl)phenyl)-2-pyridinamine]
≤ 10	COc1ccc(-c2cccc(CN[C@H](C)c3ccccc3)c2)nn1 [(1R)-N-((3-(6-(methyloxy)-3-pyridazinyl)phenyl)methyl)-1-phenylethanamine]
≤ 10	COc1ccc([C@@H](C)NCc2ccc(OC)c(-c3cnccn3)c2)cc1 [(1R)-1-(4-(methyloxy)phenyl)-N-((4-(methyloxy)-3-(2-pyrazinyl)phenyl)methyl)ethanamine]
≤ 10	COc1ccc(CN[C@H](C)c2ccccc2)cc1-c1ccc(=O)n(C)c1 [1-methyl-5-(2-(methyloxy)-5-((((1R)-1-phenylethyl)amino)methyl)phenyl)-2(1H)-pyridinone]
≤ 10	COc1ccc(CN[C@H](C)c2cccc(F)c2)cc1-c1ccc(S(C)(=O)=O)cc1 [(1R)-1-(3-fluorophenyl)-N-((6-(methyloxy)-4′-(methylsulfonyl)-1,1′-biphenyl-3-yl)methyl)ethanamine]
≤ 10	COc1ccc([C@@H](C)NCc2ccc(OC)c(-c3ccc(OC)nn3)c2)cc1 [(1R)-N-((4-(methyloxy)-3-(6-(methyloxy)-3-pyridazinyl)phenyl)methyl)-1-(4-(methyloxy)phenyl)ethanamine]
≤ 10	COc1ccc([C@@H](C)NCc2cccc(-c3cccc(OC)c3)c2)cc1 [(1R)-N-((3′-(methyloxy)-1,1′-biphenyl-3-yl)methyl)-1-(4-(methyloxy)phenyl)ethanamine]
≤ 10	COc1ccc(CN[C@H](C)c2ccc3ccccc3c2)cc1-c1nccs1 [(1R)-N-((4-(methyloxy)-3-(1,3-thiazol-2-yl)phenyl)methyl)-1-(2-naphthalenyl)ethanamine]

More lines, now with the values behind:

SMILES	EC50 [µM]
COc1cccc([C@@H](C)NCc2ccc(OC)c(-c3csc(N4CCCCC4)n3)c2)c1	≤ 10
C[C@@H](NCc1ccc(F)c(-c2ccc(C(F)(F)F)cc2)c1)c1ccccc1 [(1R)-N-((6-fluoro-4′-(trifluoromethyl)-1,1′-biphenyl-3-yl)methyl)-1-phenylethanamine]	≤ 10
COc1ccc(CN[C@H](C)c2cccc3ccccc23)cc1-c1ccc2c(c1)OC(F)(F)O2 [(1R)-N-((3-(2,2-difluoro-1,3-benzodioxol-5-yl)-4-(methyloxy)phenyl)methyl)-1-(1-naphthalenyl)ethanamine]	≤ 10
C[C@@H](NCc1ccc(OC(F)F)c(-c2cccnc2)c1)c1ccccc1 [(1R)-N-((4-((difluoromethyl)oxy)-3-(3-pyridinyl)phenyl)methyl)-1-phenylethanamine]	≤ 10
CCOC(=O)N1CC=C(c2cc(CN[C@H](C)c3cccc4ccccc34)ccc2OC)CC1 [ethyl 4-(2-(methyloxy)-5-((((1R)-1-(1-naphthalenyl)ethyl)amino)methyl)phenyl)-3,6-dihydro-1(2H)-pyridinecarboxylate]	≤ 10
COc1ccc(CN[C@H](C)c2cccc3ccccc23)cc1-c1ccc(Cl)cc1 [(1R)-N-((4′-chloro-6-(methyloxy)-1,1′-biphenyl-3-yl)methyl)-1-(1-naphthalenyl)ethanamine]	≤ 10
C[C@@H](NCc1ccc(OCC(F)(F)F)c(-c2ccc(C(F)(F)F)cc2)c1)c1ccccc1 [(1R)-1-phenyl-N-((6-((2,2,2-trifluoroethyl)oxy)-4′-(trifluoromethyl)-1,1′-biphenyl-3-yl)methyl)ethanamine]	≤ 10
CCOC(=O)c1ccc(-c2cc(CN[C@H](C)c3cccc4ccccc34)ccc2OC)cc1 [ethyl 2′-(methyloxy)-5′-((((1R)-1-(1-naphthalenyl)ethyl)amino)methyl)-1,1′-biphenyl-4-carboxylate]	≤ 10
Cc1noc(C)c1-c1ccc(CN[C@H](C)c2cccc3ccccc23)cc1 [(1R)-N-((4-(3,5-dimethyl-4-isoxazolyl)phenyl)methyl)-1-(1-naphthalenyl)ethanamine]	≤ 10
COc1ccc(CNC(C)c2cccc(Cl)c2Cl)cc1-c1ccc(C(F)(F)F)cc1 (stereo not shown) [1-(2,3-dichlorophenyl)-N-((6-(methyloxy)-4′-(trifluoromethyl)-1,1′-biphenyl-3-yl)methyl)ethanamine]	≤ 10
COc1ccc(CN[C@H](C)c2cccc3ccccc23)cc1-c1cnc2c(ccn2C)c1 [(1R)-N-((4-(methyloxy)-3-(1-methyl-1H-pyrrolo[2,3-b]pyridin-5-yl)phenyl)methyl)-1-(1-naphthalenyl)ethanamine]	≤ 10
COc1ccc(CN[C@H](C)c2cccc3ccccc23)cc1-c1ccc2nonc2c1 [(1R)-N-((3-(2,1,3-benzoxadiazol-5-yl)-4-(methyloxy)phenyl)methyl)-1-(1-naphthalenyl)ethanamine]	≤ 10
COc1ccc(CN[C@H](C)c2ccccc2)cc1-c1ccc(OCCN2CCCC2)nc1 [(1R)-N-((4-(methyloxy)-3-(6-((2-(1-pyrrolidinyl)ethyl)oxy)-3-pyridinyl)phenyl)methyl)-1-phenylethanamine]	≤ 10
